In PubChem BioAssay AID179 (DTP/NCI, 2004) one finds EC50, IC50 and outcome data, which are given here for 49 compounds.

Where “and” joins values, the source holds several entries; their conditions need not be identical. Identical values can stand only once. Calls of active or inactive are those of the source.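 How the source made its calls: active means compounds giving half or more protection of infected cells from virus-caused growth loss, again on retest; inactive means the rest.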 Where a SMILES comes first, the peptide text is derived from it. The star is where a group is joined. Myristoyl = CCCCCCCCCCCCCC(=O)* Some results are limits rather than exact numbers.

This assay relates to CEM cells HIV-1 protection, formazan growth assay. Description: NCI AIDS Antiviral Assay. The following applies: for IC50: measured here: growth of uninfected CEM cells. In a few lines: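 CEM (human) cells, HIV-1 infected vs uninfected, 5-point dosing, formazan growth read-out. Retest threshold 50% protection.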

As a reminder, the EC50 is the concentration at which the effect is half-maximal. By IC50 is commonly meant the concentration needed to halve the response being measured. Higher therefore signals weaker potency in that assay.

For `COc1ccc(C2=C/C(=C/c3ccc(O)cc3O)C(=O)O2)cc1`, the EC50 is greater than 200 µM and the IC50 was 36.3 µM.
The like results for `CCOC(=O)/C(=C\c1ccc(C(F)(F)F)cc1)[Se]c1ccccc1` were, in that order, greater than 18.2 µM and greater than 18.2 µM.
Take `CCCCCCCCCCCCCC(=O)NCC(=O)NC(C)C(=O)NC(CCCNC(=N)N)C(=O)NC(C)C(=O)NC(CO)C(=O)NC(C(=O)NC(CC(C)C)C(=O)NC(CO)C(=O)NCC(=O)NCC(=O)NC(CCC(=O)O)C(=O)NC(CC(C)C)C(=O)NC(CC(=O)O)C(=O)NC(CCCNC(=N)N)C(=O)NC(Cc1c[nH]c2ccccc12)C(=O)NC(Cc1ccc(O)cc1)C(N)=O)C(C)C` (stereo not drawn) (Myristoyl-GARASVLSGGELDRWY-NH2; configuration not given here): the EC50 was greater than 129 µM and the IC50 was greater than 129 µM.
Consider `O=C(CC(O)(C(F)(F)Cl)C(F)(F)Cl)CC(O)(C(F)(F)Cl)C(F)(F)Cl`, for which the result was inactive.
The same measure, in the same setting: the entry for `COC(=O)C[C@](O)(CCC(C)(C)O)C(=O)O[C@@H]1C(OC)=C[C@]23CCCN2CCc2cc4c(cc2[C@H]13)OCO4` is “inactive”.
As to `Cc1cc2c(cc1Cl)SC(NNC(=O)c1ccco1)=NS2(=O)=O`, the EC50 was greater than 200 µM and the IC50 is greater than 200 µM.
As for `CNN1C(=O)c2c(C)c(C)c(C#N)c(N)c2C1=O`, the EC50 is greater than 200 µM and the IC50 is greater than 200 µM.
Consider `N#Cc1c(-c2ccc(Cl)cc2)[nH]c(=O)n(C2OC(CO)C(O)C(O)C2O)c1=O` (stereo not drawn), for which the EC50 is greater than 200 µM and the IC50 is greater than 200 µM.
In the case of `CC1=CC(S)NC(=S)N1` (stereo not drawn), the EC50 is greater than 200 µM and the 50% inhibitory concentration (IC50) is greater than 200 µM.
Turning to `OC/C=C/[C@H](OCc1ccccc1)[C@H](/C=C/CO)OCc1ccccc1`, the EC50 was greater than 200 µM and the IC50 came to 57.5 µM.
Regarding `COc1c(Br)cc(/C=C(\C#N)c2ccccn2)cc1Br`, the EC50 is greater than 100 µM and the IC50 was greater than 100 µM.
`CCOC(=O)/C(=C(/N)C1OC(COC(c2ccccc2)(c2ccccc2)c2ccccc2)C2OC(C)(C)OC12)C1CC(=O)N(C)C1=O` (stereo not drawn): the EC50 is greater than 200 µM and the IC50 stood at 11.7 µM.
As to `Nc1c(C(=O)O)nnc2ccc(Cl)cc12`, the EC50 is greater than 200 µM and the concentration for half-maximal inhibition (IC50) came to 186 µM.
As to `COC12CCCC1S(=O)(=O)C2` (stereo not drawn), the result was inactive.
Turning to `C=C(C)CCC1CCCCC(CN(C)C)C1=O` (stereo not drawn), the EC50 was greater than 200 µM and the IC50 worked out at 110 µM.
As to `CC1=NNC(=S)NCCCN2CCN(CCCNC(=S)NN=C(C)C=NNC(=S)NCCCN3CCN(CCCNC(=S)NN=C1)CC3)CC2`, the EC50 was greater than 123 µM and the concentration for half-maximal inhibition (IC50) is greater than 123 µM.
Turning to `CC(C)C(=O)NCC[C@@H](CNC(=O)OC(C)(C)C)NC(=O)OC(C)(C)C`, the EC50 was greater than 200 µM and the IC50 is greater than 200 µM.
With `O=S(=O)(O)c1ccc(SSc2ccc(S(=O)(=O)O)cc2)cc1`, the EC50 was greater than 200 µM and the IC50 is greater than 200 µM.
In the case of `C=CC[C@]1(C(C)C(OC(C)=O)c2ccc3c(c2)OCO3)C[C@@H](OC)C=CC1=O` (stereo partly drawn), the EC50 was greater than 20 µM and the concentration for half-maximal inhibition (IC50) was 1.48 µM.
`COCCOCCOCCOc1cccc2c1C(=O)c1cccc(OCCOCCOCCOC)c1C2=O`: the result was inactive.
On to `CCOC(=O)C[N+]1(C)CCC(O)CC1` (stereo not drawn), for which the EC50 was greater than 200 µM and the half-inhibitory concentration (IC50) was greater than 200 µM.
In the case of `O=[N+]([O-])c1ccc(Cc2ccccc2)cc1`, the EC50 was greater than 63.1 µM and the IC50 is greater than 63.1 µM.
On to `COC1(C)CP(=O)(OC(C)C)CC(C)=C1Cl` (stereo not drawn), for which the EC50 is greater than 20 µM and the IC50 amounted to 7.59 µM.
On to `Cc1c(C(N)=C(C#N)C#N)c(=N)oc2ccccc12`, for which the EC50 is greater than 200 µM and the IC50 was 36.3 µM.
Turning to `Cc1cc(OP2(=O)NCc3ncccc3O2)ccc1Cl` (stereo not drawn), the EC50 is greater than 200 µM and the IC50 was greater than 200 µM.
`O=C1C(Cl)N(c2ccc([N+](=O)[O-])cc2)C1c1c[nH]c2ccccc12` (stereo not drawn): the EC50 is greater than 145 µM and the IC50 amounted to 18.2 µM.
In the case of `Cc1nn(C(=O)c2ccncc2)c2c1C(c1ccc(Cl)cc1)SC(N)=N2` (stereo not drawn), the EC50 is greater than 200 µM and the IC50 turned out to be 30.9 µM.
In the case of `O=C(Nn1c(=S)[nH][nH]c1=S)c1ccccc1`, the concentration for a half-maximal effect (EC50) was greater than 200 µM and the IC50 was greater than 200 µM.
As for `Cc1ccc2c(c1)CN1c3ccc(C)cc3CN2C1c1ccccc1O`, the result was inactive.
For `CCCCc1ccc(Nc2nc(Cl)c3c(ncn3COCCOC(C)=O)n2)cc1`, the EC50 is greater than 200 µM and the IC50 came to 33.1 µM.
For `O=c1c2c3ccccc3[nH]c2c2cccc3c2n1CCC3`, the EC50 was greater than 200 µM and the IC50 was 61.7 µM.
The like results for `CCCCCCCCCCCCNC(=O)c1ccccc1[Se][Se]c1ccccc1C(=O)NCCCCCCCCCCCC` were, in that order, greater than 3.55 µM and greater than 3.55 µM.
For `CC(=O)N(C(C)=O)c1ncc(-n2nc(-c3ccccc3)cc2-c2ccccc2)c(-c2ccccc2)n1`, in that order: greater than 200 µM and 115 µM.
The like results for `CC(C)N1C(=O)N(Cl)C2C1N(Cl)C(=O)N2Cl` (stereo not drawn) were, in that order, greater than 200 µM and greater than 200 µM.
Take `O=C(/C=C/c1ccsc1)c1ccc(Cl)cc1`: the EC50 was greater than 200 µM and the 50% inhibitory concentration (IC50) stood at 3.31 µM.
Regarding `O=C(c1ccccc1)c1cc2c([nH]c1=O)CCCCC2`, the EC50 is greater than 200 µM and the IC50 came to 135 µM.
As to `CC(C)[Si](OCC1CC(C[C@H]2CC(C[C@H]3C[C@@H](CO[Si](C(C)C)(C(C)C)C(C)C)OC(C)(C)O3)OC(C)(C)O2)OC(C)(C)O1)(C(C)C)C(C)C` (stereo partly drawn), the EC50 was greater than 200 µM and the 50% inhibitory concentration (IC50) is greater than 200 µM.
As to `COC(=O)NC(Nc1ccccn1)(C(F)(F)F)C(F)(F)F`, the EC50 is greater than 200 µM and the IC50 is greater than 200 µM.
As to `CC1CN2COC(=S)SSSSC(=S)OCN3CC(C)N(COC(=S)SSSSC(=S)OCN1CC2C)CC3C` (stereo not drawn), the EC50 is greater than 100 µM and the IC50 came out at 12 µM.
For `NC1(C(=O)O)CCCCC1c1ccccc1` (stereo not drawn), the EC50 was greater than 42.7 µM and the IC50 was greater than 42.7 µM.
Take `C/C(=N\NS(=O)(=O)c1ccc(C)cc1)c1cc2ccccc2n1C`: the EC50 was greater than 79.4 µM and the IC50 was greater than 79.4 µM.
Consider `COC(=O)C(CC(=O)Nc1ccc(Cl)c(Cl)c1)C(=O)C(=O)NC1C2CC3CC(C2)CC1C3` (stereo not drawn), for which the EC50 is greater than 70.8 µM and the half-inhibitory concentration (IC50) is greater than 70.8 µM.
In the case of `CC(=O)Nc1ccccc1S(=O)c1ccccc1` (stereo not drawn), the EC50 is greater than 229 µM and the IC50 was greater than 229 µM.
Regarding `COC(=O)CNS(=O)(=O)c1ccc(-c2c3nc(c(-c4ccc(S(=O)(=O)NCC(=O)OC)cc4)c4ccc([nH]4)c(-c4ccc(S(=O)(=O)NCC(=O)OC)cc4)c4nc(c(-c5ccc(S(=O)(=O)NCC(=O)OC)cc5)c5ccc2[nH]5)C=C4)C=C3)cc1`, the EC50 is greater than 100 µM and the IC50 was greater than 100 µM.
Take `C#CC(C)(C)OC(=O)C(=[N+]=[N-])C(C)=O`: the EC50 is greater than 200 µM and the IC50 was greater than 200 µM.
With `Cc1cccnc1CC(O)c1ccccc1` (stereo not drawn), the EC50 was greater than 200 µM and the half-inhibitory concentration (IC50) is 107 µM.
Regarding `OC(Cc1ccc(Br)cc1)CN1CCC(c2ccccc2)CC1` (stereo not drawn), the EC50 was greater than 229 µM; the IC50 was 17.8 µM and 9.55 µM.
For the compound `CCOC(=O)C(NC(=O)CC(C)C)(NC(C)C)C(F)(F)F` (stereo not drawn), the EC50 was greater than 200 µM and the IC50 was greater than 200 µM.
Turning to `Cc1nn(C(=O)c2ccncc2)c2c1C(c1ccccc1O)SC(N)=N2` (stereo not drawn), the EC50 was 85.1 µM and the IC50 came to 148 µM.
